{"source": "patent US20170312269A1", "about": "“COMPOSITIONS AND METHODS FOR REDUCING FOOD CRAVINGS” (OREXIGEN THERAPEUTICS, INC., priority 2005, published 2017)", "origin": "cited, not measured here", "details": "in vivo; cited from earlier work", "data": [{"smiles": "CNCCC(Oc1ccc(C(F)(F)F)cc1)c1ccccc1", "note": "(stereo not shown) [fluoxetine]", "values": [{"measurement": "physiological half life", "result": "about 9 hours"}]}]}
